Results published in patent publication US20260374773A1, “MULTI-CYCLIC IRAK AND FLT3 INHIBITING COMPOUNDS AND USES THEREOF” (CHILDREN'S HOSPITAL MEDICAL CENTER, priority 2022, published 2026).

Key:
FLT3 = molecular target: T1, FLT3 (Homo sapiens, UniProt P36888); assay: DiscoverX KINOMEscan active site-directed competition binding, FLT3; conditions: no ATP
T1 sequence (P36888 27-993): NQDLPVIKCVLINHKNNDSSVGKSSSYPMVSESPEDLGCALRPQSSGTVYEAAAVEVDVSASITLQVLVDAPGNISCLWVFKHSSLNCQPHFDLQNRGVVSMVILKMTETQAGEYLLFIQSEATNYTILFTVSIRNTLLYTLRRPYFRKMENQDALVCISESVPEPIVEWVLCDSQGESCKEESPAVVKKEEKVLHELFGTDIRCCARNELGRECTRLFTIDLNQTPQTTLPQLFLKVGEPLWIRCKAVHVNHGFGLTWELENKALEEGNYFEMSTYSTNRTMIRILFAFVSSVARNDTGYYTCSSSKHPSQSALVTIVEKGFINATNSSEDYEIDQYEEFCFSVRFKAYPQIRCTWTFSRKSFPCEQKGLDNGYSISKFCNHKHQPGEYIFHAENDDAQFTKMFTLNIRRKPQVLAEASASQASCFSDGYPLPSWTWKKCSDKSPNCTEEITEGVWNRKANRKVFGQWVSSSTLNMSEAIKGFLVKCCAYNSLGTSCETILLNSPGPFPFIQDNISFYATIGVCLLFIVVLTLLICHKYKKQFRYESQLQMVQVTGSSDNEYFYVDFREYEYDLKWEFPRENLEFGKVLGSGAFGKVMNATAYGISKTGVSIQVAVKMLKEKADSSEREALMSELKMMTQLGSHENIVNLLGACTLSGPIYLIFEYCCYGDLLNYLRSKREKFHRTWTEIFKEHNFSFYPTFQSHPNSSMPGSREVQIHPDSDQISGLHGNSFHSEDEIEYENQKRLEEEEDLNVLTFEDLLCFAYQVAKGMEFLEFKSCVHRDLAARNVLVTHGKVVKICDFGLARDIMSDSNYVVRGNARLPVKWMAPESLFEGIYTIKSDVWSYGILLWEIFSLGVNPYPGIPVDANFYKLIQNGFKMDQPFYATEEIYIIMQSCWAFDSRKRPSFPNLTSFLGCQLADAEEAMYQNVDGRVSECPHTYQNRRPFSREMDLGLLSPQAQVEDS
Source text: (§1) Kinase binding data were obtained for various exemplary compounds prepared according to Examples 1-8 using the DiscoverX KINOMEscan® active site-directed competition binding site-directed assay protocol described below. […] As a result, the data report thermodynamic interaction affinities (Kd values), rather than IC50 values that are dependent on ATP concentrations. The assay uses a DNA-tagged version of the protein kinase, and an immobilized ligand bound to a solid support. Compounds that directly or indirectly prevent kinase binding to the immobilized ligand reduce the amount of kinase captured on the solid support, which is detected using an ultra-sensitive qPCR method. Affinity constants reported from the assay have been reported to be independent of the immobilized ligand used that is coupled to the solid support (See supplemental information in Fabian, M. A. et. al., (2005) Nat. Biotechnol. 23, 329-336; Wodicka, L. M. et. al., (2010) Chem. Biol. 17, 1241-1249.)
(§2) Kinase-tagged T7 phage strains were prepared in an E. coli host derived from the BL21 strain. E. coli were grown to log-phase and infected with T7 phage and incubated with shaking at 32 °C until lysis. The lysates were centrifuged and filtered to remove cell debris. The remaining kinases were produced in HEK-293 cells and subsequently tagged with DNA for qPCR detection. Streptavidin-coated magnetic beads were treated with biotinylated small molecule ligands for 30 minutes at room temperature to generate affinity resins for kinase assays. The liganded beads were blocked with excess biotin and washed with blocking buffer (SeaBlock (Pierce), 1% BSA, 0.05% Tween 20, 1 mM DTT) to remove unbound ligand and to reduce non-specific binding. […] Test compounds were prepared as 111x stocks in 100% DMSO. Kds were determined using an 11-point 3-fold compound dilution series with three DMSO control points. All compounds for Kd measurements are distributed by acoustic transfer (non-contact dispensing) in 100% DMSO. The compounds were then diluted directly into the assays such that the final concentration of DMSO was 0.9%. All reactions were performed in polypropylene 384-well plates. Each was a final volume of 0.02 mL. The assay plates were incubated at room temperature with shaking for 1 hour and the affinity beads were washed with wash buffer (1×PBS, 0.05% Tween 20). The beads were then re-suspended in elution buffer (1×PBS, 0.05% Tween 20, 0.5 μM nonbiotinylated affinity ligand) and incubated at room temperature with shaking for 30 minutes. The kinase concentration in the eluates was measured by qPCR. Binding constants (Kds) were calculated with a standard dose-response curve using the Hill equation. The Hill Slope was set to −1. Curves were fitted using a non-linear least square fit with the Levenberg-Marquardt algorithm.
as §1, with “9-12” for “1-8”
(§3) Kinase-tagged T7 phage strains were prepared in an E. coli host derived from the BL21 strain. […]

FLT3 ITD, D835V = molecular target: T2, FLT3 ITD, D835V (Homo sapiens, UniProt P36888, D835V/ITD); assay: DiscoverX KINOMEscan active site-directed competition binding, FLT3 ITD, D835V; conditions: no ATP
T2 sequence (P36888 27-993 D835V): T1 sequence (P36888 27-993)
Source text: as §1, §2
as §1, with “9-12” for “1-8”
as §3

Kd (FLT3; Table 18) [nM]	Kd (FLT3 ITD, D835V; Table 19) [nM]	Kd (FLT3; Table 12) [nM]	Kd (FLT3 ITD, D835V; Table 13) [nM]	Structure (SMILES)
< 0.17	< 0.17	–	–	COc1cn2ncc(-c3cncc(N[C@H]4CNCC[C@@H]4F)n3)c2nc1C1CC1 [Compound 12a, 6-(5-cyclopropyl-6-methoxypyrazolo[1,5-a]pyrimidin-3-yl)-N-((3S,4S)-4-fluoropiperidin-3-yl)pyrazin-2-amine]
–	–	< 0.17	< 0.17	COc1cn2ncc(-c3nc(N[C@H]4CNCC[C@@H]4F)c(C#N)cc3F)c2nc1C1CC1 [Compound 7, 6-(5-cyclopropyl-6-methoxypyrazolo[1,5-a]pyrimidin-3-yl)-5-fluoro-2-(((3S,4S)-4-fluoropiperidin-3-yl)amino)nicotinonitrile]
0.47	< 0.17	–	–	COc1cn2ncc(-c3nc(N[C@H]4CNCC[C@@H]4F)ncc3F)c2nc1C(C)(C)O [Compound 6a, 2-(3-(5-fluoro-2-(((3S,4S)-4-fluoropiperidin-3-yl)amino)pyrimidin-4-yl)-6-methoxypyrazolo[1,5-a]pyrimidin-5-yl)propan-2-ol]
–	–	0.61	< 0.17	COc1cn2ncc(-c3nc(N[C@H]4CNCC[C@@H]4F)c(F)cc3F)c2nc1C(C)(C)O [Compound 13, 2-(3-(3,5-difluoro-6-(((3S,4S)-4-fluoropiperidin-3-yl)amino)pyridin-2-yl)-6-methoxypyrazolo[1,5-a]pyrimidin-5-yl)propan-2-ol]
< 0.17	< 0.17	–	–	COc1cn2ncc(-c3ccnc(N[C@H]4CNCC[C@@H]4F)n3)c2nc1C1CC1 [Compound 7a, 4-(5-cyclopropyl-6-methoxypyrazolo[1,5-a]pyrimidin-3-yl)-N-((3S,4S)-4-fluoropiperidin-3-yl)pyrimidin-2-amine]
< 0.17	< 0.17	–	–	COc1cn2ncc(-c3nc(N[C@H]4CNCC[C@@H]4F)ncc3F)c2nc1C1CC1 [Compound 15a, 4-(5-cyclopropyl-6-methoxypyrazolo[1,5-a]pyrimidin-3-yl)-5-fluoro-N-((3S,4S)-4-fluoropiperidin-3-yl)pyrimidin-2-amine]
–	–	0.28	< 0.17	COc1cn2ncc(-c3nc(N[C@H]4CNCC[C@@H]4F)c(C#N)cc3F)c2nc1C(C)(C)O [Compound 10, 5-fluoro-2-(((3S,4S)-4-fluoropiperidin-3-yl)amino)-6-(5-(2-hydroxypropan-2-yl)-6-methoxypyrazolo[1,5-a]pyrimidin-3-yl)nicotinonitrile]
< 0.17	< 0.17	–	–	COc1cn2ncc(-c3nc(N[C@@H]4CCCNC4)ncc3F)c2nc1C1CC1 [Compound 14a, (R)-4-(5-cyclopropyl-6-methoxypyrazolo[1,5-a]pyrimidin-3-yl)-5-fluoro-N-(piperidin-3-yl)pyrimidin-2-amine]
